Data reported in patent US10131652B2, “Pyrimidinyloxy benzene derivatives as herbicides” (E. I. DU PONT DE NEMOURS AND COMPANY, priority 2014, dated 2018).
Where two headings read alike, the source gives them in different places.

Key:
Test in all cases: Test F pre-/postemergence plant response
Format in all cases: in vivo
[1] = test system: sandbur (southern sandbur, Cenchrus echinatus); settings: Cenchrus echinatus, scale 0 to 100, read-out: Plant response rating, Sandbur
Procedure, shortened: (§1)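 Values are visual ratings, where 100 is complete control and 0 is no effect, given after 14 to 21 days of greenhouse growth. Test chemicals in a non-phytotoxic, surfactant-containing solvent were sprayed on soil just after planting or on emerged seedlings at the 1- to 4-leaf stage.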

[2] = test system: giant foxtail (Setaria faberii); settings: Setaria faberi, pre-emergence, scale 0 to 100, read-out: Plant response rating, Foxtail, Giant
Procedure, shortened: as §1

[3] = test system: wild poinsettia (Euphorbia heterophylla); settings: Euphorbia heterophylla, scale 0 to 100, read-out: Plant response rating, Poinsettia, Wild
Procedure, shortened: as §1

[4] = test system: dayflower (Virginia (VA) dayflower, Commelina virginica); settings: Commelina virginica, scale 0 to 100, read-out: Plant response rating, Dayflower, VA
Procedure, shortened: as §1

[5] = test system: Brazilian crabgrass (Digitaria horizontalis); settings: Digitaria horizontalis, scale 0 to 100, read-out: Plant response rating, Crabgrass, Brazil
Procedure, shortened: as §1

[6] = test system: green foxtail (Setaria viridis); settings: Setaria viridis, pre-emergence, Preemergence, scale 0 to 100, read-out: Plant response rating, Foxtail, Green
Procedure, shortened: as §1

[7] = test system: morningglory (Ipomoea coccinea); settings: Ipomoea, pre-emergence, scale 0 to 100, read-out: Plant response rating, Morningglory
Procedure, shortened: as §1

[8] = test system: goosegrass (Eleusine indica); settings: Eleusine indica, pre-emergence, scale 0 to 100, read-out: Plant response rating, Goosegrass
Procedure, shortened: as §1

[9] = test system: lambsquarters (Chenopodium album); settings: Chenopodium album, pre-emergence, Preemergence, scale 0 to 100, read-out: Plant response rating, Lambsquarters
Procedure, shortened: as §1

[10] = test system: johnsongrass (Sorghum halepense); settings: Sorghum halepense, pre-emergence, scale 0 to 100, read-out: Plant response rating, Johnsongrass
Procedure, shortened: as §1

[11] = test system: field bindweed (Convolvulus arvensis); settings: Convolvulus arvensis, scale 0 to 100, read-out: Plant response rating, Field Bindweed
Procedure, shortened: as §1

[12] = test system: fall panicum (Panicum dichotomiflorum); settings: Panicum dichotomiflorum, scale 0 to 100, read-out: Plant response rating, Panicum, Fall
Procedure, shortened: as §1

[13] = test system: waterhemp (common waterhemp, Amaranthus rudis); settings: Amaranthus tuberculatus, scale 0 to 100, read-out: Plant response rating, Waterhemp
Procedure, shortened: as §1

soybean (Glycine max) = settings: Glycine max, scale 0 to 100, read-out: Plant response rating, Soybean
Procedure, shortened: as §1

corn (Zea mays) = settings: Zea mays, scale 0 to 100
Procedure, shortened: as §1

[14] = test system: palmer pigweed (Amaranthus palmeri); settings: Amaranthus palmeri, scale 0 to 100, read-out: Plant response rating, Pigweed, Palmer
Procedure, shortened: as §1

[15] = post-emergence, 16 g ai/ha Postemergence
[16] = post-emergence, 31 g ai/ha Postemergence
[17] = post-emergence, 62 g ai/ha Postemergence
[18] = post-emergence, 125 g ai/ha Postemergence
[19] = pre-emergence, 16 g ai/ha Preemergence
[20] = pre-emergence, 31 g ai/ha Preemergence
[21] = pre-emergence, 125 g ai/ha Preemergence
[22] = pre-emergence, 62 g ai/ha Preemergence

## Fc1cccc(Oc2ncc(Br)cn2)c1-c1cc(C(F)F)no1 [Compound 145, 5-bromo-2-[2-[3-(difluoromethyl)-5-isoxazolyl]-3-fluorophenoxy]pyrimidine]
[1]; [15]
  pest or weed control at 16 g/ha: 5%
[1]; [16]
  pest or weed control at 31 g/ha: 5%
[1]; [17]
  pest or weed control at 62 g/ha: 5%
[1]; [18]
  pest or weed control at 125 g/ha: 15%
[1]; [19]
  pest or weed control at 16 g/ha: 0%
[1]; [20]
  pest or weed control at 31 g/ha: 35%
[1]; [21]
  pest or weed control at 125 g/ha: 95%
[1]; pre-emergence, Preemergence
  pest or weed control at 62 g/ha: 25%
[2]; 16 g ai/ha Preemergence
  pest or weed control at 16 g/ha: 0%
[2]; 31 g ai/ha Preemergence
  pest or weed control at 31 g/ha: 65%
[2]; 62 g ai/ha Preemergence
  pest or weed control at 62 g/ha: 85%
[2]; 125 g ai/ha Preemergence
  pest or weed control at 125 g/ha: 100%
[3]; [15]
  pest or weed control at 16 g/ha: 70%
[3]; [16]
  pest or weed control at 31 g/ha: 75%
[3]; [17]
  pest or weed control at 62 g/ha: 80%
[3]; [18]
  pest or weed control at 125 g/ha: 80%
[3]; [19]
  pest or weed control at 16 g/ha: 0%
[3]; [20]
  pest or weed control at 31 g/ha: 0%
[3]; [21]
  pest or weed control at 125 g/ha: 65%
[3]; pre-emergence, Preemergence
  pest or weed control at 62 g/ha: 65%
[4]; [15]
  pest or weed control at 16 g/ha: 50%
[4]; [16]
  pest or weed control at 31 g/ha: 60%
[4]; [17]
  pest or weed control at 62 g/ha: 75%
[4]; [18]
  pest or weed control at 125 g/ha: 85%
[4]; [19]
  pest or weed control at 16 g/ha: 0%
[4]; [20]
  pest or weed control at 31 g/ha: 0%
[4]; [22]
  pest or weed control at 62 g/ha: 35%
[4]; [21]
  pest or weed control at 125 g/ha: 70%
[5]; [15]
  pest or weed control at 16 g/ha: 20%
[5]; [16]
  pest or weed control at 31 g/ha: 20%
[5]; [17]
  pest or weed control at 62 g/ha: 40%
[5]; [18]
  pest or weed control at 125 g/ha: 50%
[5]; [19]
  pest or weed control at 16 g/ha: 5%
[5]; [20]
  pest or weed control at 31 g/ha: 80%
[5]; [22]
  pest or weed control at 62 g/ha: 95%
[5]; [21]
  pest or weed control at 125 g/ha: 100%
[6]; 16 g ai/ha
  pest or weed control at 16 g/ha: 5%
[6]; 31 g ai/ha
  pest or weed control at 31 g/ha: 40%
[6]; 125 g ai/ha
  pest or weed control at 125 g/ha: 100%
[6]
  pest or weed control at 62 g/ha: 100%
[7]; 16 g ai/ha Preemergence
  pest or weed control at 16 g/ha: 0%
[7]; 31 g ai/ha Preemergence
  pest or weed control at 31 g/ha: 10%
[7]; 125 g ai/ha Preemergence
  pest or weed control at 125 g/ha: 35%
[7]; Preemergence
  pest or weed control at 62 g/ha: 15%
[8]; 16 g ai/ha Preemergence
  pest or weed control at 16 g/ha: 0%
[8]; 31 g ai/ha Preemergence
  pest or weed control at 31 g/ha: 70%
[8]; 125 g ai/ha Preemergence
  pest or weed control at 125 g/ha: 95%
[8]; Preemergence
  pest or weed control at 62 g/ha: 80%
[9]; 16 g ai/ha
  pest or weed control at 16 g/ha: 100%
[9]; 31 g ai/ha
  pest or weed control at 31 g/ha: 100%
[9]; 125 g ai/ha
  pest or weed control at 125 g/ha: 100%
[9]
  pest or weed control at 62 g/ha: 100%
[10]; 16 g ai/ha Preemergence
  pest or weed control at 16 g/ha: 0%
[10]; 31 g ai/ha Preemergence
  pest or weed control at 31 g/ha: 20%
[10]; 125 g ai/ha Preemergence
  pest or weed control at 125 g/ha: 85%
[10]; Preemergence
  pest or weed control at 62 g/ha: 100%
[11]; [15]
  pest or weed control at 16 g/ha: 70%
[11]; [16]
  pest or weed control at 31 g/ha: 75%
[11]; [17]
  pest or weed control at 62 g/ha: 80%
[11]; [18]
  pest or weed control at 125 g/ha: 90%
[11]; [19]
  pest or weed control at 16 g/ha: 0%
[11]; [20]
  pest or weed control at 31 g/ha: 50%
[11]; [22]
  pest or weed control at 62 g/ha: 65%
[11]; [21]
  pest or weed control at 125 g/ha: 95%
[12]; [15]
  pest or weed control at 16 g/ha: 10%
[12]; [16]
  pest or weed control at 31 g/ha: 10%
[12]; [17]
  pest or weed control at 62 g/ha: 50%
[12]; [18]
  pest or weed control at 125 g/ha: 80%
[12]; [19]
  pest or weed control at 16 g/ha: 65%
[12]; [20]
  pest or weed control at 31 g/ha: 80%
[12]; [21]
  pest or weed control at 125 g/ha: 100%
[12]; pre-emergence, Preemergence
  pest or weed control at 62 g/ha: 95%
[13]; [15]
  pest or weed control at 16 g/ha: 95%
[13]; [16]
  pest or weed control at 31 g/ha: 98%
[13]; [17]
  pest or weed control at 62 g/ha: 100%
[13]; [18]
  pest or weed control at 125 g/ha: 100%
[13]; [19]
  pest or weed control at 16 g/ha: 100%
[13]; [20]
  pest or weed control at 31 g/ha: 100%
[13]; [21]
  pest or weed control at 125 g/ha: 100%
[13]; pre-emergence, Preemergence
  pest or weed control at 62 g/ha: 100%
Soybean (Glycine max); [15]
  plant injury at 16 g/ha: 95%
Soybean (Glycine max); [16]
  plant injury at 31 g/ha: 95%
Soybean (Glycine max); [17]
  plant injury at 62 g/ha: 95%
Soybean (Glycine max); [18]
  plant injury at 125 g/ha: 95%
Soybean (Glycine max); [19]
  plant injury at 16 g/ha: 0%
Soybean (Glycine max); [20]
  plant injury at 31 g/ha: 0%
Soybean (Glycine max); [21]
  plant injury at 125 g/ha: 40%
Soybean (Glycine max); pre-emergence, Preemergence
  plant injury at 62 g/ha: 15%
Corn (Zea mays); [15]
  Corn plant response rating (crop injury, 0 = no effect, 100 = complete kill) at 16 g/ha: 5%
Corn (Zea mays); [16]
  Corn plant response rating (crop injury, 0 = no effect, 100 = complete kill) at 31 g/ha: 10%
Corn (Zea mays); [17]
  Corn plant response rating (crop injury, 0 = no effect, 100 = complete kill) at 62 g/ha: 20%
Corn (Zea mays); [18]
  Corn plant response rating (crop injury, 0 = no effect, 100 = complete kill) at 125 g/ha: 20%
Corn (Zea mays); [19]
  Corn plant response rating (crop injury, 0 = no effect, 100 = complete kill) at 16 g/ha: 0%
Corn (Zea mays); [20]
  Corn plant response rating (crop injury, 0 = no effect, 100 = complete kill) at 31 g/ha: 0%
Corn (Zea mays); [22]
  Corn plant response rating (crop injury, 0 = no effect, 100 = complete kill) at 62 g/ha: 40%
Corn (Zea mays); [21]
  Corn plant response rating (crop injury, 0 = no effect, 100 = complete kill) at 125 g/ha: 60%
[14]; [15]
  pest or weed control at 16 g/ha: 95%
[14]; [16]
  pest or weed control at 31 g/ha: 100%
[14]; [17]
  pest or weed control at 62 g/ha: 100%
[14]; [18]
  pest or weed control at 125 g/ha: 100%
[14]; [19]
  pest or weed control at 16 g/ha: 100%
[14]; [20]
  pest or weed control at 31 g/ha: 100%
[14]; [21]
  pest or weed control at 125 g/ha: 100%
[14]; pre-emergence, Preemergence
  pest or weed control at 62 g/ha: 100%
